According to ChEMBL document CHEMBL3407397, “Effect of size and N-terminal residue characteristics on bacterial cell penetration and antibacterial activity of the proline-rich peptide Bac7” (J Med Chem, 2015):
Values after ≈ are worked out from the molar mass of the structure shown. Active and inactive are the calls of the source. The rule behind the calls is not given here. Non-standard residues stand in square brackets, D forms with d. Residues, ends and D or L forms follow the SMILES beside them. *: point of attachment. X1 = F[B-]1(F)n2c(ccc2*)C=C2C=CC=[N+]21; Cit = NC(=O)NCCC[C@H](N)C(=O)O

How the values were obtained:
Escherichia coli [1] = assay: Antimicrobial activity against Escherichia coli ATCC 25922 incubated for 18 hrs at 37 degC by broth microdilution method; type: functional; details: ATCC 25922, 18 h
Escherichia coli [2] = assay: Antimicrobial activity against O-antigen lacking LPS containing wild type Escherichia coli BW25113 incubated for 18 hrs at 37 degC by broth microdilution method; type: functional; details: BW25113, 18 h
Escherichia coli [3] = assay: Antimicrobial activity against delta-waaG deletion mutant containing Escherichia coli BW25113 incubated for 18 hrs at 37 degC by broth microdilution method; type: functional; details: BW25113, 18 h
Escherichia coli [4] = assay: Antimicrobial activity against delta-sbmA deletion mutant containing Escherichia coli BW25113 incubated for 18 hrs at 37 degC by broth microdilution method; type: functional; details: BW25113, 18 h
Escherichia coli [5] = assay: Drug uptake in O-antigen lacking LPS containing wild type Escherichia coli BW25113 at 1 uM up to 3.5 hrs in presence of trypan blue quencher; type: ADME, organism-based; details: in vivo
Escherichia coli [6] = assay: Drug uptake in delta-waaG deletion mutant containing Escherichia coli BW25113 at 4 uM up to 3.5 hrs in presence of trypan blue quencher; type: ADME, organism-based; details: in vivo
Escherichia coli [7] = assay: Bacteriostatic activity against O-antigen lacking LPS containing wild type Escherichia coli BW25113 at 4 uM incubated for 3.5 hrs; type: functional, organism-based
Escherichia coli [8] = assay: Bacteriostatic activity against delta-waaG deletion mutant containing wild type Escherichia coli BW25113 at 4 uM incubated for 3.5 hrs; type: functional, organism-based
Escherichia coli [9] = assay: Drug uptake in Escherichia coli ATCC 25922 assessed as mean fluorescence intensity using BODIPY-labeled compound at 0.25 to 4 uM incubated for 10 mins by flow cytometry; type: ADME, organism-based; details: in vivo
Escherichia coli [10] = assay: Drug uptake in Escherichia coli ATCC 25922 assessed as mean fluorescence intensity using BODIPY-labeled compound at 0.25 to 4 uM incubated for 10 mins in presence of trypan blue quencher by flow cytometry; type: ADME, organism-based; details: in vivo
Escherichia coli [11] = assay: Drug uptake in Escherichia coli ATCC 25922 assessed as mean fluorescence intensity using BODIPY-labeled compound at 0.25 to 4 uM incubated for 60 mins by flow cytometry; type: ADME, organism-based; details: in vivo, 1 h
Escherichia coli [12] = assay: Drug uptake in Escherichia coli ATCC 25922 assessed as mean fluorescence intensity using BODIPY-labeled compound at 0.25 to 4 uM incubated for 60 mins in presence of trypan blue quencher by flow cytometry; type: ADME, organism-based; details: in vivo, 1 h
Escherichia coli [13] = assay: Drug uptake in Escherichia coli ATCC 25922 assessed as mean fluorescence intensity using BODIPY-labeled compound at 0.25 uM incubated for 10 mins by confocal microscopy; type: ADME, organism-based; details: in vivo
Escherichia coli [14] = assay: Antimicrobial activity against Escherichia coli HB101 incubated for 18 hrs at 37 degC by broth microdilution method; type: functional; details: HB101, 18 h
Escherichia coli [15] = assay: Bactericidal activity against O-antigen lacking LPS containing wild type Escherichia coli BW25113 assessed as bacterial killing at 4 uM incubated for 3.5 hrs; type: functional, organism-based
Escherichia coli [16] = assay: Bactericidal activity against delta-waaG deletion mutant containing wild type Escherichia coli BW25113 assessed as bacterial killing at 4 uM incubated for 3.5 hrs; type: functional, organism-based
Escherichia coli [17] = assay: Drug uptake in O-antigen lacking LPS containing wild type Escherichia coli BW25113 up to 32 uM incubated for 60 mins by propidium iodide staining based cytofluorimetric method; type: ADME, organism-based; details: in vivo, 1 h

Row | Molecule | Drug uptake (Escherichia coli [5]) | Drug uptake (Escherichia coli [9]) | Drug uptake (Escherichia coli [10]) | Drug uptake (Escherichia coli [11]) | Drug uptake (Escherichia coli [12]) | MIC (Escherichia coli [14]) | MIC (Escherichia coli [1]) | MIC (Escherichia coli [2]) | MIC (Escherichia coli [3]) | MIC (Escherichia coli [4]) | further results
1 | CC[C@H](C)[C@H](NC(=O)[C@H](CCCNC(N)=O)NC(=O)[C@@H](N)CCCNC(N)=O)C(=O)N[C@@H](CCCNC(=N)N)C(=O)N1CCC[C@H]1C(=O)N[C@@H](CCCNC(=N)N)C(=O)N1CCC[C@H]1C(=O)N1CCC[C@H]1C(=O)N[C@@H](CCCNC(=N)N)C(=O)N[C@@H](CC(C)C)C(=O)N1CCC[C@H]1C(=O)N[C@@H](CCCNC(=N)N)C(=O)N1CCC[C@H]1C(=O)N[C@@H](CCCNC(=N)N)C(=O)N1CCC[C@H]1C(=O)N[C@@H](CCCNC(=N)N)C(=O)N1CCC[C@H]1C(=O)N[C@@H](CC(C)C)C(=O)N1CCC[C@H]1C(=O)N[C@@H](Cc1ccc(O)cc1)C(=O)N1CCC[C@H]1C(=O)N[C@@H](CCCNC(=N)N)C(=O)N1CCC[C@H]1C(=O)O (H-[Cit][Cit]IRPRPPRLPRPRPRPLPYPRP-OH) | Active | – | – | – | – | – | 32 µM (≈ 92.8 µg/mL) | 32 µM (≈ 92.8 µg/mL) | 8 µM (≈ 23.2 µg/mL) | > 64 µM | Drug uptake (Escherichia coli [6]): Active; Activity (Escherichia coli [7]): Active; Activity (Escherichia coli [8]): Active
2 | CC[C@H](C)[C@H](NC(=O)[C@H](CCCNC(=N)N)NC(=O)[C@@H](N)CCCNC(=N)N)C(=O)N[C@@H](CCCNC(=N)N)C(=O)N1CCC[C@H]1C(=O)N[C@@H](CCCNC(=N)N)C(=O)N1CCC[C@H]1C(=O)N1CCC[C@H]1C(=O)N[C@@H](CCCNC(=N)N)C(=O)N[C@@H](CC(C)C)C(=O)N1CCC[C@H]1C(=O)N[C@@H](CCCNC(=N)N)C(=O)N1CCC[C@H]1C(=O)N[C@@H](CCCNC(=N)N)C(=O)N1CCC[C@H]1C(=O)N[C@@H](CCCNC(=N)N)C(=O)N1CCC[C@H]1C(=O)N[C@@H](CC(C)C)C(=O)N1CCC[C@H]1C(=O)N[C@@H](Cc1ccccc1)C(=O)N1CCC[C@H]1C(=O)N[C@@H](CCCNC(=N)N)C(=O)N1CCC[C@H]1C(=O)NCC(=O)N1CCC[C@H]1C(=O)N[C@@H](CCCNC(=N)N)C(=O)N1CCC[C@H]1C(=O)N[C@H](C(=O)N1CCC[C@H]1C(=O)N[C@@H](CCCNC(=N)N)C(=O)N1CCC[C@H]1C(=O)N[C@@H](CC(C)C)C(=O)N1CCC[C@H]1C(=O)N[C@@H](Cc1ccccc1)C(=O)N1CCC[C@H]1C(=O)N[C@@H](CSc1ccc2n1[B-](F)(F)[N+]1=CC=CC1=C2)C(=O)O)[C@@H](C)CC (H-RRIRPRPPRLPRPRPRPLPFPRPGPRPIPRPLPFPC(X1)-OH) | – | Active | Active | Active | Active | – | – | – | – | – | Drug uptake (Escherichia coli [13]): Active
3 | CC[C@H](C)[C@H](NC(=O)[C@H](CCCNC(=N)N)NC(=O)[C@@H](N)CCCNC(=N)N)C(=O)N[C@@H](CCCNC(=N)N)C(=O)N1CCC[C@H]1C(=O)N[C@@H](CCCNC(=N)N)C(=O)N1CCC[C@H]1C(=O)N1CCC[C@H]1C(=O)N[C@@H](CCCNC(=N)N)C(=O)N[C@@H](CC(C)C)C(=O)N1CCC[C@H]1C(=O)N[C@@H](CCCNC(=N)N)C(=O)N1CCC[C@H]1C(=O)N[C@@H](CCCNC(=N)N)C(=O)N1CCC[C@H]1C(=O)N[C@@H](CCCNC(=N)N)C(=O)N1CCC[C@H]1C(=O)N[C@@H](CC(C)C)C(=O)N1CCC[C@H]1C(=O)N[C@@H](Cc1ccc(O)cc1)C(=O)N1CCC[C@H]1C(=O)N[C@@H](CCCNC(=N)N)C(=O)N1CCC[C@H]1C(=O)O | – | – | – | – | – | 0.5 µM (≈ 1.45 µg/mL) | 0.5 µM (≈ 1.45 µg/mL) | 1 µM (≈ 2.9 µg/mL) | 0.5 µM (≈ 1.45 µg/mL) | 8 µM (≈ 23.2 µg/mL) | Activity (Escherichia coli [15]): Active; Activity (Escherichia coli [16]): Active; Drug uptake (Escherichia coli [17]): Not Active
4 | CC[C@H](C)[C@H](NC(=O)[C@H](CCCNC(=N)N)NC(=O)[C@@H](N)CCCNC(=N)N)C(=O)N[C@@H](CCCNC(=N)N)C(=O)N1CCC[C@H]1C(=O)N[C@@H](CCCNC(=N)N)C(=O)N1CCC[C@H]1C(=O)N1CCC[C@H]1C(=O)N[C@@H](CCCNC(=N)N)C(=O)N[C@@H](CC(C)C)C(=O)N1CCC[C@H]1C(=O)N[C@@H](CCCNC(=N)N)C(=O)N1CCC[C@H]1C(=O)N[C@@H](CSc1ccc2n1[B-](F)(F)[N+]1=CC=CC1=C2)C(=O)O (H-RRIRPRPPRLPRPC(X1)-OH) | – | Not Active | Not Active | Not Active | Not Active | 8 µM (≈ 15.7 µg/mL) | 16 µM (≈ 31.4 µg/mL) | – | – | – | Drug uptake (Escherichia coli [13]): Active
5 | H-IRPRPPRLPRPRPRPLPYPRP-OH | – | – | – | – | – | – | 8 µM | 8 µM | 4 µM | 32 µM | Activity (Escherichia coli [7]): Active; Activity (Escherichia coli [8]): Active

Continued, in another order:

Row | Drug uptake (Escherichia coli [5]) | Drug uptake (Escherichia coli [9]) | Drug uptake (Escherichia coli [10]) | Drug uptake (Escherichia coli [11]) | Drug uptake (Escherichia coli [12]) | MIC (Escherichia coli [14]) | Molecule | MIC (Escherichia coli [1]) | MIC (Escherichia coli [2]) | MIC (Escherichia coli [3]) | MIC (Escherichia coli [4]) | further results
6 | Not Active | Active | Active | Active | Active | – | CC[C@H](C)[C@H](NC(=O)[C@H](CCCNC(=N)N)NC(=O)[C@@H](N)CCCNC(=N)N)C(=O)N[C@@H](CCCNC(=N)N)C(=O)N1CCC[C@H]1C(=O)N[C@@H](CCCNC(=N)N)C(=O)N1CCC[C@H]1C(=O)N1CCC[C@H]1C(=O)N[C@@H](CCCNC(=N)N)C(=O)N[C@@H](CC(C)C)C(=O)N1CCC[C@H]1C(=O)N[C@@H](CCCNC(=N)N)C(=O)N1CCC[C@H]1C(=O)N[C@@H](CCCNC(=N)N)C(=O)N1CCC[C@H]1C(=O)N[C@@H](CCCNC(=N)N)C(=O)N1CCC[C@H]1C(=O)N[C@@H](CC(C)C)C(=O)N1CCC[C@H]1C(=O)N[C@@H](Cc1ccccc1)C(=O)N1CCC[C@H]1C(=O)N[C@@H](CCCNC(=N)N)C(=O)N1CCC[C@H]1C(=O)N[C@@H](CSc1ccc2n1[B-](F)(F)[N+]1=CC=CC1=C2)C(=O)O (H-RRIRPRPPRLPRPRPRPLPFPRPC(X1)-OH) | – | – | – | – | –
7 | Active | – | – | – | – | – | CC[C@H](C)[C@H](N)C(=O)N[C@@H](CCCNC(=N)N)C(=O)N1CCC[C@H]1C(=O)N[C@@H](CCCNC(=N)N)C(=O)N1CCC[C@H]1C(=O)N1CCC[C@H]1C(=O)N[C@@H](CCCNC(=N)N)C(=O)N[C@@H](CC(C)C)C(=O)N1CCC[C@H]1C(=O)N[C@@H](CCCNC(=N)N)C(=O)N1CCC[C@H]1C(=O)N[C@@H](CCCNC(=N)N)C(=O)N1CCC[C@H]1C(=O)N[C@@H](CCCNC(=N)N)C(=O)N1CCC[C@H]1C(=O)N[C@@H](CC(C)C)C(=O)N1CCC[C@H]1C(=O)N[C@@H](Cc1ccc(O)cc1)C(=O)N1CCC[C@H]1C(=O)N[C@@H](CCCNC(=N)N)C(=O)N1CCC[C@H]1C(=O)N[C@@H](CSc1ccc2n1[B-](F)(F)[N+]1=CC=CC1=C2)C(=O)O (H-IRPRPPRLPRPRPRPLPYPRPC(X1)-OH) | – | – | – | – | Drug uptake (Escherichia coli [6]): Active
8 | – | Not Active | Not Active | Not Active | Not Active | 1 µM (≈ 2.21 µg/mL) | CC[C@H](C)[C@H](NC(=O)[C@H](CCCNC(=N)N)NC(=O)[C@@H](N)CCCNC(=N)N)C(=O)N[C@@H](CCCNC(=N)N)C(=O)N1CCC[C@H]1C(=O)N[C@@H](CCCNC(=N)N)C(=O)N1CCC[C@H]1C(=O)N1CCC[C@H]1C(=O)N[C@@H](CCCNC(=N)N)C(=O)N[C@@H](CC(C)C)C(=O)N1CCC[C@H]1C(=O)N[C@@H](CCCNC(=N)N)C(=O)N1CCC[C@H]1C(=O)N[C@@H](CCCNC(=N)N)C(=O)N1CCC[C@H]1C(=O)N[C@@H](CSc1ccc2n1[B-](F)(F)[N+]1=CC=CC1=C2)C(=O)O (H-RRIRPRPPRLPRPRPC(X1)-OH) | 1 µM (≈ 2.21 µg/mL) | – | – | – | –
